In patent US20260069584A1, “METHODS OF TREATING CHRONIC MYELOID LEUKEMIA USING THE TYROSINE KINASE INHIBITOR VODOBATINIB” (Sun Pharma Advanced Research Company Ltd., priority 2022, published 2026):
“And” between values parts separate entries of the source, which are not always exact repeats. Equal entries are not always repeated.

Key:
[1] = tested on: Ph+ CML (CP CML, AP CML and BP CML) and Ph+ ALL; assay: Parts B and C pooled (n=59): disease response; format: in vivo, human
Method: Additionally, 71.2% of all the subjects were refractory and/or intolerant to ≥3 TKIs. The MCyR and MMR in subjects with CP CML were 63% and 34.8%, respectively, and those with more aggressive disease viz. AP CML, BP CML and Ph+ ALL were 53.8% and 30.8%, respectively.
The MTD of the compound of Formula I was 204 mg while RP2D was 174 mg QD. Anti-leukemic activity in the form of hematological, cytogenetic and molecular responses was reported across Parts B and C (n=59). Major cytogenetic responses were reported in 61% of subjects while major molecular responses were reported in 33.9% of subjects across doses. […] There is limited evidence of activity in the CML literature in such a heavily pre-treated population.

[2] = Part C: adverse events
Method: In this study, the patient population of each cohort was evaluated separately for efficacy and safety. The subjects were treated in 4-week cycles using once-daily, oral administration of the compound of Formula I and evaluated for anti-CML responses (hematological, cytogenetic and molecular response). The Adverse events (AEs) were assessed throughout the study until 30 days after discontinuation of administration of the compound of Formula I and were graded as per National Cancer Institute, Common Terminology Criteria for Adverse Events (NCI-CTCAE) Version 5.0.
Study assessments monitored the efficacy and safety of the compound of Formula I. The efficacy assessments at baseline included cytogenetic, molecular, and hematology evaluations and sequencing for identification of the BCR-ABL kinase domain mutation, if any. Cytogenetic and molecular assessments were carried out by central labs. Hematologic assessments were completed within the −7 to −1 days of the patient was dosed by the site's local laboratory. Safety assessments at baseline included clinical evaluations, electrocardiograms, complete blood counts, and serum chemistry tests.
Patients were evaluated every 7 days in 4-week cycles up until Cycle 3 day 1, after which they were required to visit the site on Cycle 3 day 28; and once every 3 cycles thereafter for complete blood counts, chemistry analyses, and efficacy assessments. Each cycle visit included clinical evaluations, electrocardiograms, complete blood counts, and serum chemistry tests. Efficacy assessments consisting of bone marrow aspiration for cytogenetic analysis with molecular testing to measure the BCR/ABL1 transcript levels were carried out every 3 months. On discontinuation, patients were required to visit the site for an End of Treatment (EoT) visit which happened 30 days after the date of discontinuation of therapy. Patients were followed for survival by telephone survey.

[3] = Pharmacokinetics in CML patients by dose cohort; conditions: for Cmin: cycle 2, CML patients, oral; for AUC(0-t) / Cmax: human, plasma, po
Method: A±5 minutes window permitted till 4 hours PK sample collection. A±10 minutes window permitted for subsequent PK sample collection. Days 3, 8, 15, and 22 of Cycle 1:30 (±10) minutes Predose only. […] A #5 minutes window permitted till 4 hours PK sample collection. A #10 minutes window permitted for subsequent PK sample collection. Days 8, 15, and 22 of Cycle 2:30 (±10) minutes Predose only. Cycle 3 onwards: Predose samples on Day 1.
Pharmacokinetic analysis was performed using non-compartmental analysis. The actual elapsed time from dose was used in the final PK parameter calculations. Plasma concentrations and PK parameters for the compound of Formula I were listed and summarized by dose cohort using descriptive statistics (n, mean, standard deviation, minimum, median, and maximum). Geometric mean and geometric coefficient of variation were calculated for PK parameters. Additionally, mean concentration profiles by dose cohort and cycle were illustrated. Dose proportionality of Cmax and AUC(0-24) was assessed graphically for Cycle 1 and Cycle 2. Dose proportionality was statistically evaluated using the power model approach, whenever the number of patients was at least 3 for a given cohort. Time to steady-state (Ctrough) was evaluated graphically. Differences among dose levels in CL/F and V/F, and dose-normalized Cmax and AUC(0-24) were explored using an analysis of variance.
The PK parameters for the study were summarized by treatment using descriptive (N, n, mean, standard deviation [SD], coefficient of variation [CV] % minimum, median, maximum, geometric mean and CV %) statistics, except for Tmax. For Tmax, the number of subjects, minimum, median, and maximum are reported.

[4] = SAD study in healthy male volunteers: safety and tolerability; format: in vivo, human; conditions: single-dose 6 mg, 12 mg and 24 mg
Method: Initially in the single ascending dose (SAD) study the safety, tolerability, and pharmacokinetics of the compound of Formula I at 6 mg, 12 mg, and 24 mg doses in healthy human male volunteers were evaluated. In this study, the healthy male volunteers within the mean age group of 28.7-35 years were orally administered an investigational medicinal product (IMP) or a placebo after an overnight fast (of at least 8 hours). The IMP used in this study was a hard gelatin capsule comprising the compound of Formula I of varying sizes containing either 6 mg or 24 mg of the compound of Formula I and the excipients. For the 12 mg dose, two capsules of 6 mg were used. The placebo formulation containing the excipients matched the compound of Formula I capsules in shape, size, and color. […] The median time of maximum concentration (Tmax: 2.5-3 hours, across dose range) was independent of the dose level. Dose-related increases in exposure (AUC and Cmax) were observed. […] The inter-subject variability, for the PK parameters, was generally higher in the 12 mg dose group when compared with that in the 6 mg and 24 mg dose groups (Table 07, and FIG. 1)
There were no clinically significant changes in laboratory parameters, and no clinically significant changes in vital signs or electrocardiogram were recorded for any subject.

In the case of `Cc1ccc(C(=O)NNC(=O)c2c(C)cccc2Cl)cc1C#Cc1cnc2ccccc2c1` [compound of Formula I, N′-(2-chloro-6-methylbenzoyl)-4-methyl-3-[2-(3-quinolyl)ethynyl]-benzohydrazide], the “major molecular response deepened to complete molecular response” value ([1]; 174 mg initial dose, 2 subjects) is reported as 9.1%, the complete hematological response ([1]; 174 mg initial dose, 20 out of 24 subjects) is reported as 83.3% and the MMR ([1]; 29 subjects with prior ponatinib (n=11 of 29)) is reported as 37.93% and 37.9%. The MCyR ([1]; 29 subjects with prior ponatinib (n=15 of 29)) was 51.7%, the MCyR ([1]; AP CML, BP CML and Ph+ ALL) was 53.8% and the MMR ([1]; AP CML, BP CML and Ph+ ALL) was 30.8%. For the same compound, the major cytogenetic response ([1]; RP2D of 174 mg, independent of prior ponatinib exposure) was 50%, the “major cytogenetic response (MCyR)” value ([1]; all subjects, across doses) was 61% and the “major molecular response (MMR)” value ([1]; all subjects, across doses) was 33.9%. It also gave an MCyR ([1]; subjects with CP CML) of 63%, an MMR ([1]; subjects with CP CML) of 34.8% and a TEAE cough ([2]; 19 subjects) of 21.1%. For the same compound, the TEAE dyspnea ([2]; 19 subjects) was 21.1%, the TEAE fatigue ([2]; 19 subjects) was 21.1% and the TEAE nausea ([2]; 19 subjects) was 26.3%. For the same compound, the TEAE neutropenia ([2]; 19 subjects) was 21.1%, the TEAE rash ([2]; 19 subjects) was 26.3% and the TEAE thrombocytopenia ([2]; 19 subjects) was 31.6%. For the same compound, the Abdominal pain ([2]; All Grades (N = 19)) was 2 (10.5) n (%), the Anaemia ([2]; All Grades (N = 19)) was 3 (15.8) n (%) and the Arthralgia ([2]; All Grades (N = 19)) was 2 (10.5) n (%). For the same compound, the Back pain ([2]; All Grades (N = 19)) was 2 (10.5) n (%), the COVID-19 ([2]; All Grades (N = 19)) was 2 (10.5) n (%) and the Chest pain ([2]; All Grades (N = 19)) was 2 (10.5) n (%). For the same compound, the Constipation ([2]; All Grades (N = 19)) was 3 (15.8) n (%), the Contusion ([2]; All Grades (N = 19)) was 2 (10.5) n (%) and the Cough ([2]; All Grades (N = 19)) was 4 (21.1) n (%). The Diarrhoea ([2]; All Grades (N = 19)) was 3 (15.8) n (%), the Dizziness ([2]; All Grades (N = 19)) was 2 (10.5) n (%) and the Dry skin ([2]; All Grades (N = 19)) was 3 (15.8) n (%). For the same compound, the Dyspnoea ([2]; All Grades (N = 19)) was 4 (21.1) n (%), the Fatigue ([2]; All Grades (N = 19)) was 4 (21.1) n (%) and the Flank pain ([2]; All Grades (N = 19)) was 2 (10.5) n (%). The Headache ([2]; All Grades (N = 19)) was 3 (15.8) n (%), the Herpes zoster ([2]; All Grades (N = 19)) was 2 (10.5) n (%) and the Hypertension ([2]; All Grades (N = 19)) was 3 (15.8) n (%). The Hyperuricaemia ([2]; All Grades (N = 19)) was 2 (10.5) n (%), the Hypocalcaemia ([2]; All Grades (N = 19)) was 2 (10.5) n (%) and the Hypokalaemia ([2]; All Grades (N = 19)) was 2 (10.5) n (%). For the same compound, the Hypophosphataemia ([2]; All Grades (N = 19)) was 2 (10.5) n (%), the Muscle spasms ([2]; All Grades (N = 19)) was 2 (10.5) n (%) and the Nasopharyngitis ([2]; All Grades (N = 19)) was 2 (10.5) n (%). For the same compound, the Nausea ([2]; All Grades (N = 19)) was 5 (26.3) n (%), the Neutropenia ([2]; All Grades (N = 19)) was 4 (21.1) n (%) and the Oropharyngeal pain ([2]; All Grades (N = 19)) was 2 (10.5) n (%). For the same compound, the Pancytopenia ([2]; All Grades (N = 19)) was 2 (10.5) n (%), the Rash ([2]; All Grades (N = 19)) was 5 (26.3) n (%) and the thrombocytopenia ([2]; All Grades (N = 19)) was 6 (31.6) n (%). The Abdominal pain ([2]; Grade 3 or 4 (N = 9)) was 0 n, the Anaemia ([2]; Grade 3 or 4 (N = 9)) was 1 n and the Arthralgia ([2]; Grade 3 or 4 (N = 9)) was 0 n. For the same compound, the Back pain ([2]; Grade 3 or 4 (N = 9)) was 0 n, the COVID-19 ([2]; Grade 3 or 4 (N = 9)) was 1 n and the Chest pain ([2]; Grade 3 or 4 (N = 9)) was 0 n. For the same compound, the Constipation ([2]; Grade 3 or 4 (N = 9)) was 0 n, the Contusion ([2]; Grade 3 or 4 (N = 9)) was 0 n and the Cough ([2]; Grade 3 or 4 (N = 9)) was 0 n. For the same compound, the Diarrhoea ([2]; Grade 3 or 4 (N = 9)) was 1 n, the Dizziness ([2]; Grade 3 or 4 (N = 9)) was 0 n and the Dry skin ([2]; Grade 3 or 4 (N = 9)) was 0 n. It also gave a Dyspnoea ([2]; Grade 3 or 4 (N = 9)) of 1 n, a Fatigue ([2]; Grade 3 or 4 (N = 9)) of 0 n and a Flank pain ([2]; Grade 3 or 4 (N = 9)) of 0 n. The Headache ([2]; Grade 3 or 4 (N = 9)) was 0 n, the Herpes zoster ([2]; Grade 3 or 4 (N = 9)) was 0 n and the Hypertension ([2]; Grade 3 or 4 (N = 9)) was 0 n. For the same compound, the Hyperuricaemia ([2]; Grade 3 or 4 (N = 9)) was 0 n, the Hypocalcaemia ([2]; Grade 3 or 4 (N = 9)) was 1 n and the Hypokalaemia ([2]; Grade 3 or 4 (N = 9)) was 1 n. It also gave a Hypophosphataemia ([2]; Grade 3 or 4 (N = 9)) of 0 n, a Muscle spasms ([2]; Grade 3 or 4 (N = 9)) of 0 n and a Nasopharyngitis ([2]; Grade 3 or 4 (N = 9)) of 0 n. It also gave a Nausea ([2]; Grade 3 or 4 (N = 9)) of 1 n, a Neutropenia ([2]; Grade 3 or 4 (N = 9)) of 3 n and an Oropharyngeal pain ([2]; Grade 3 or 4 (N = 9)) of 0 n. The Pancytopenia ([2]; Grade 3 or 4 (N = 9)) was 1 n, the Rash ([2]; Grade 3 or 4 (N = 9)) was 0 n and the thrombocytopenia ([2]; Grade 3 or 4 (N = 9)) was 4 n. The tolerability ([2]; heavily pre-treated CML population) was “well tolerated”, the “Grade 3 or 4 TEAE neutropenia” value ([2]; in vivo) was 33.3% and the “Grade 3 or 4 TEAE thrombocytopenia” value ([2]; in vivo) was 44.4%. It also gave a Cmin ([3]; dose cohort 12) of 61.8, a Cmin ([3]; dose cohort 24) of 114 and a Cmin ([3]; dose cohort 48) of 261. For the same compound, the Cmin ([3]; dose cohort 66) was 102.7, the Cmin ([3]; dose cohort 90) was 363 and the Cmin ([3]; dose cohort 126) was 831. The Cmin ([3]; dose cohort 174) was 254, the Cmin ([3]; dose cohort 204) was 427 and the “increase of mean exposures (AUC) with dose” value ([3]; doses above 174 mg) was “sub-proportional increase or plateauing of exposures”. It also gave an AUC(0-t) ([3]; 12 mg) of 3330 ng·h/mL, a Cmax ([3]; 12 mg) of 685 ng/mL and an AUC(0-t) ([3]; 24 mg) of 5070 ng·h/mL. It also gave a Cmax ([3]; 24 mg) of 589 ng/mL, an AUC(0-t) ([3]; 48 mg) of 13700 ng·h/mL and a Cmax ([3]; 48 mg) of 1090 ng/mL. For the same compound, the AUC(0-t) ([3]; 66 mg) was 7780 ng·h/mL, the Cmax ([3]; 66 mg) was 830 ng/mL and the AUC(0-t) ([3]; 90 mg) was 22800 ng·h/mL. It also gave a Cmax ([3]; 90 mg) of 2860 ng/mL, an AUC(0-t) ([3]; 126 mg) of 50300 ng·h/mL and a Cmax ([3]; 126 mg) of 4100 ng/mL. The AUC(0-t) ([3]; 174 mg) was 35700 ng·h/mL, the Cmax ([3]; 174 mg) was 4210 ng/mL and the “steady state reached (trough concentrations)” value ([3]; majority of the subjects) was no more than 3 days. The “accumulation at steady state” value ([3]; once-daily dosing) was “no low or minimal accumulation”, the “withdrawal criteria based on QTcF prolongation or safety laboratory tests” value [4] was “No subject reached the subject withdrawal criteria” and the safety and tolerability ([4]; healthy subjects) was “safe and well tolerated”.
